Assay results as given in ChEMBL document CHEMBL2150905, “Discovery of Disubstituted Imidazo[4,5-b]pyridines and Purines as Potent TrkA Inhibitors” (ACS Med Chem Lett, 2012).
In brackets after ≈: the same amount, converted by molar mass. One block for each compound: values may come before it.

What was measured:
[1] = Half life in Han Wistar rat at 10 mg/kg, po and 3 mg/kg, iv; type: ADME, organism-based; conditions: in vivo
[2] = Oral bioavailability in Han Wistar rat at 10 mg/kg; type: ADME, organism-based; conditions: in vivo
[3] = target: T1, Tyrosine-protein kinase ABL1 (Homo sapiens, UniProt P00519); test: Inhibition of Abl
T1 sequence (P00519 whole entry): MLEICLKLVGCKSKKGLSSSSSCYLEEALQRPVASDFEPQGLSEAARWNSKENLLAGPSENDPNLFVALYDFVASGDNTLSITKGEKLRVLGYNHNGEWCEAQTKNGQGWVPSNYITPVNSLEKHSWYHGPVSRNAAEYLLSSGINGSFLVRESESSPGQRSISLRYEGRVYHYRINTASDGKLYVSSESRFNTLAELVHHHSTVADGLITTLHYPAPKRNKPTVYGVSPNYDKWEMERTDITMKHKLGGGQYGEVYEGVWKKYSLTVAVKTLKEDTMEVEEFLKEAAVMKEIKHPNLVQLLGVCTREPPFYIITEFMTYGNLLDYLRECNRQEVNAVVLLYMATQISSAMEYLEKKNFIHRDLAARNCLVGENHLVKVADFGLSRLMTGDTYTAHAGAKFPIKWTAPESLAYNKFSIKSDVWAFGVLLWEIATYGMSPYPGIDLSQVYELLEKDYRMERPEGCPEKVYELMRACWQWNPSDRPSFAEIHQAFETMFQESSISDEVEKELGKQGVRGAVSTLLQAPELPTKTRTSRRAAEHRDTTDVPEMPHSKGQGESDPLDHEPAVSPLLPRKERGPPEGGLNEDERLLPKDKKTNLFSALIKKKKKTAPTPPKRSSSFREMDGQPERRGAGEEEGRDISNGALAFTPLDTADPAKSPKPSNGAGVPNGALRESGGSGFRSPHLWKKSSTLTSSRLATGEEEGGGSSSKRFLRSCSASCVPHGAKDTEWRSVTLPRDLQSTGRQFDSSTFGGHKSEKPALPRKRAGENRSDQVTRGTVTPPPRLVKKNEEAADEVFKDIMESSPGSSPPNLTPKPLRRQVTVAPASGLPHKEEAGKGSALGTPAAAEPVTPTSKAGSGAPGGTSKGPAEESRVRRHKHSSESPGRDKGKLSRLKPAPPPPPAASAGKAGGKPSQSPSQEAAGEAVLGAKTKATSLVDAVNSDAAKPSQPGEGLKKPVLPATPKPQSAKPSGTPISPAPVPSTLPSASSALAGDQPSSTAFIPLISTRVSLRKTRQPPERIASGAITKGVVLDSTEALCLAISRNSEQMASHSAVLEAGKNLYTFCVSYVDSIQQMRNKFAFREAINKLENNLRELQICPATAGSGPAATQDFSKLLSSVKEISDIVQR

[4] = target: T2, High affinity nerve growth factor receptor (Homo sapiens, UniProt P04629); test: Inhibition of TrkA
[5] = target: Receptor-type tyrosine-protein kinase FLT3 (Homo sapiens, UniProt P36888); test: Inhibition of Flt3
[6] = target: T3, Tyrosine-protein kinase Fgr (Homo sapiens, UniProt P09769); test: Inhibition of Fgr
[7] = target: T4, Tyrosine-protein kinase BTK (Homo sapiens, UniProt Q06187); test: Inhibition of BTK
[8] = target: T5, Serine/threonine-protein kinase SIK1 (Homo sapiens, UniProt P57059); test: Inhibition of SIK
[9] = target: Phosphorylase b kinase gamma catalytic chain, liver/testis isoform (Homo sapiens, UniProt P15735); test: Inhibition of PhKg2
[10] = target: T6, Fibroblast growth factor receptor 1 (Homo sapiens, UniProt P11362); test: Inhibition of FGFR1
[11] = target: T7, Mitogen-activated protein kinase 14 (Homo sapiens, UniProt Q16539); test: Inhibition of SAPK2a
[12] = target: T8, Focal adhesion kinase 1 (Homo sapiens, UniProt Q05397); test: Inhibition of FAK
[13] = target: T9, Proto-oncogene tyrosine-protein kinase Src (Homo sapiens, UniProt P12931); test: Inhibition of cSrc
[14] = target: Testis-specific serine/threonine-protein kinase 2 (Homo sapiens, UniProt Q96PF2); test: Inhibition of TSSK2
[15] = target: T10, ALK tyrosine kinase receptor (Homo sapiens, UniProt Q9UM73); test: Inhibition of ALK
[16] = target: T11, Mitogen-activated protein kinase kinase kinase 9 (Homo sapiens, UniProt P80192); test: Inhibition of MLK1
[17] = target: T12, Vascular endothelial growth factor receptor 3 (Homo sapiens, UniProt P35916); test: Inhibition of FLT4
T12 sequence (P35916 whole entry): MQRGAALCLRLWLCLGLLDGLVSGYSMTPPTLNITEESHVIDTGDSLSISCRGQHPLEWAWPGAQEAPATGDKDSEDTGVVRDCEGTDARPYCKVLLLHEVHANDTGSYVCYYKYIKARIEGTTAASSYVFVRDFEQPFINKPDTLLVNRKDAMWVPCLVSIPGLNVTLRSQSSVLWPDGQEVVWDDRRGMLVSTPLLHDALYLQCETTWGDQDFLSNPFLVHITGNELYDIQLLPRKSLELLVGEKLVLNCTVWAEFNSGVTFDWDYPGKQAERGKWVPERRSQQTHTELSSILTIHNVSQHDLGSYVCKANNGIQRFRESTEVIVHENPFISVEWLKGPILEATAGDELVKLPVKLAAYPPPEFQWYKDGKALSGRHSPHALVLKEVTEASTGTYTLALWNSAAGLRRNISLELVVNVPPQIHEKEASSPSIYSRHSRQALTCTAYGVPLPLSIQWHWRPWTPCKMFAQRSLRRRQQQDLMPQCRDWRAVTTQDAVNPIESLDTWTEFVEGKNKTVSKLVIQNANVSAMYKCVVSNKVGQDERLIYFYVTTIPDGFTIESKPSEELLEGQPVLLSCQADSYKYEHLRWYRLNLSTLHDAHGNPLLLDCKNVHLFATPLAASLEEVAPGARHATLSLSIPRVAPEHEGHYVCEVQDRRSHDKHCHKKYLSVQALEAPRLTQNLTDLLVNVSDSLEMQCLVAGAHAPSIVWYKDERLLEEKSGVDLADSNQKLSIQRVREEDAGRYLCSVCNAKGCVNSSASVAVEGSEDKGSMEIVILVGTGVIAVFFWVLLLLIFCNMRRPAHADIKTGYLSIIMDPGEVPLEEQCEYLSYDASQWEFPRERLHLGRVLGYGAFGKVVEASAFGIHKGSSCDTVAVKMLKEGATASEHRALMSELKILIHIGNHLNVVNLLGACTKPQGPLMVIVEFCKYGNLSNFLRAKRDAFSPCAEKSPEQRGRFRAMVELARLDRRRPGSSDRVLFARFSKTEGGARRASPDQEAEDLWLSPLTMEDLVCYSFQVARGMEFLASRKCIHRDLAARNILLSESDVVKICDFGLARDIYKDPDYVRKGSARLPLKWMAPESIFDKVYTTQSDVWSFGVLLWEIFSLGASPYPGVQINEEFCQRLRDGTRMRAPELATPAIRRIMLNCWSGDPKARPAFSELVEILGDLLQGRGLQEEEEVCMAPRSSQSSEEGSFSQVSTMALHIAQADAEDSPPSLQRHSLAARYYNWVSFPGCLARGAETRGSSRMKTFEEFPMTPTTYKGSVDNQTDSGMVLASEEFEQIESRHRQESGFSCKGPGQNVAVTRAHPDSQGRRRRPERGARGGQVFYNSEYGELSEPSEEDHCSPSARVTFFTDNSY

[18] = target: T13, Tyrosine-protein kinase JAK2 (Homo sapiens, UniProt O60674); test: Inhibition of JAK2
T13 sequence (O60674 whole entry): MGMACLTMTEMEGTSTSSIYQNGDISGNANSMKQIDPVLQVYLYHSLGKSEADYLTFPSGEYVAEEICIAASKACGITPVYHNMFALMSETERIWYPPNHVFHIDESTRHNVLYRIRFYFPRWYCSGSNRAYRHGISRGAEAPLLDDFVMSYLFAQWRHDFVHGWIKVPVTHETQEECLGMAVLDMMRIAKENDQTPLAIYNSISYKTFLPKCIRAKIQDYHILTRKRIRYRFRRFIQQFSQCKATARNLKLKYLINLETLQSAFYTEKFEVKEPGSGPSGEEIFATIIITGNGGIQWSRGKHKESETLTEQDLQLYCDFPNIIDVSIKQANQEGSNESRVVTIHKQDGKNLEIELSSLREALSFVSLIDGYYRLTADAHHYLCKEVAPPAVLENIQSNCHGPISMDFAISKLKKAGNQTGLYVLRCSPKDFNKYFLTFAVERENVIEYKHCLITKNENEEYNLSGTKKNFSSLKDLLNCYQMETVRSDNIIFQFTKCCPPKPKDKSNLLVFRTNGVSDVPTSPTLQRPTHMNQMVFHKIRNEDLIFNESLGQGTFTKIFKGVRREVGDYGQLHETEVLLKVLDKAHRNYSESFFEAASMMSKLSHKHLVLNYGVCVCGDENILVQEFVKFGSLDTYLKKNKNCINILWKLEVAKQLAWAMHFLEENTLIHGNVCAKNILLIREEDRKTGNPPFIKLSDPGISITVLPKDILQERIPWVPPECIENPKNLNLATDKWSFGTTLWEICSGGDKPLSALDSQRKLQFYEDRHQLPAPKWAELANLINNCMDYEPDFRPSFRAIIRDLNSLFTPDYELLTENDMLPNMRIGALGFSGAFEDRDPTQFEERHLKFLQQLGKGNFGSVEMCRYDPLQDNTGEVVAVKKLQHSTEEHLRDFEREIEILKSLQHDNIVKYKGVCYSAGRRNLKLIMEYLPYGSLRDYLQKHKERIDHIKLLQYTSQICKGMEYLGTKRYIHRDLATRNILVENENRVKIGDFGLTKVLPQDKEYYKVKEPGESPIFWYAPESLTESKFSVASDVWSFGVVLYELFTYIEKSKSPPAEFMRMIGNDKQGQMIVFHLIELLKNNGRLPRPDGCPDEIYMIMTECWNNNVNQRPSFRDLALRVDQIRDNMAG

[19] = target: Tyrosine-protein kinase ITK/TSK (Homo sapiens, UniProt Q08881); test: Inhibition of Itk
[20] = target: T14, Serine/threonine-protein kinase WNK3 (Homo sapiens, UniProt Q9BYP7); test: Inhibition of WNK3
[21] = target: BDNF/NT-3 growth factors receptor (Homo sapiens, UniProt Q16620); test: Inhibition of TrkB
[22] = target: Proto-oncogene tyrosine-protein kinase receptor Ret (Homo sapiens, UniProt P07949); test: Inhibition of Ret
[23] = target: Tyrosine-protein kinase Lck (Homo sapiens, UniProt P06239); test: Inhibition of Lck
[24] = target: Receptor-type tyrosine-protein kinase FLT3 (Homo sapiens) (UniProt P36888); test: Inhibition of Flt3 at 10 uM
[25] = target: T3, Tyrosine-protein kinase Fgr; test: Inhibition of Fgr at 10 uM
[26] = target: T4, Tyrosine-protein kinase BTK; test: Inhibition of BTK at 10 uM
[27] = target: T5, Serine/threonine-protein kinase SIK1; test: Inhibition of SIK at 10 uM
[28] = target: Phosphorylase b kinase gamma catalytic chain, liver/testis isoform (Homo sapiens) (UniProt P15735); test: Inhibition of PhKg2 at 10 uM
[29] = target: T6, Fibroblast growth factor receptor 1; test: Inhibition of FGFR1 at 10 uM
[30] = target: T7, Mitogen-activated protein kinase 14; test: Inhibition of SAPK2a at 10 uM
[31] = target: T8, Focal adhesion kinase 1; test: Inhibition of FAK at 10 uM
[32] = target: T9, Proto-oncogene tyrosine-protein kinase Src; test: Inhibition of cSrc at 10 uM
[33] = target: T10, ALK tyrosine kinase receptor; test: Inhibition of ALK at 10 uM
[34] = target: T11, Mitogen-activated protein kinase kinase kinase 9; test: Inhibition of MLK1 at 10 uM
[35] = target: T12, Vascular endothelial growth factor receptor 3; test: Inhibition of FLT4 at 10 uM
[36] = target: T13, Tyrosine-protein kinase JAK2; test: Inhibition of JAK2 at 10 uM
[37] = target: Tyrosine-protein kinase ITK/TSK (Homo sapiens) (UniProt Q08881); test: Inhibition of Itk at 10 uM
[38] = target: Muscle, skeletal receptor tyrosine-protein kinase (Homo sapiens, UniProt O15146); test: Inhibition of MuSk
[39] = target: Voltage-gated inwardly rectifying potassium channel KCNH2 (Homo sapiens, UniProt Q12809)
Voltage-gated inwardly rectifying potassium channel KCNH2, sequence (Q12809 whole entry): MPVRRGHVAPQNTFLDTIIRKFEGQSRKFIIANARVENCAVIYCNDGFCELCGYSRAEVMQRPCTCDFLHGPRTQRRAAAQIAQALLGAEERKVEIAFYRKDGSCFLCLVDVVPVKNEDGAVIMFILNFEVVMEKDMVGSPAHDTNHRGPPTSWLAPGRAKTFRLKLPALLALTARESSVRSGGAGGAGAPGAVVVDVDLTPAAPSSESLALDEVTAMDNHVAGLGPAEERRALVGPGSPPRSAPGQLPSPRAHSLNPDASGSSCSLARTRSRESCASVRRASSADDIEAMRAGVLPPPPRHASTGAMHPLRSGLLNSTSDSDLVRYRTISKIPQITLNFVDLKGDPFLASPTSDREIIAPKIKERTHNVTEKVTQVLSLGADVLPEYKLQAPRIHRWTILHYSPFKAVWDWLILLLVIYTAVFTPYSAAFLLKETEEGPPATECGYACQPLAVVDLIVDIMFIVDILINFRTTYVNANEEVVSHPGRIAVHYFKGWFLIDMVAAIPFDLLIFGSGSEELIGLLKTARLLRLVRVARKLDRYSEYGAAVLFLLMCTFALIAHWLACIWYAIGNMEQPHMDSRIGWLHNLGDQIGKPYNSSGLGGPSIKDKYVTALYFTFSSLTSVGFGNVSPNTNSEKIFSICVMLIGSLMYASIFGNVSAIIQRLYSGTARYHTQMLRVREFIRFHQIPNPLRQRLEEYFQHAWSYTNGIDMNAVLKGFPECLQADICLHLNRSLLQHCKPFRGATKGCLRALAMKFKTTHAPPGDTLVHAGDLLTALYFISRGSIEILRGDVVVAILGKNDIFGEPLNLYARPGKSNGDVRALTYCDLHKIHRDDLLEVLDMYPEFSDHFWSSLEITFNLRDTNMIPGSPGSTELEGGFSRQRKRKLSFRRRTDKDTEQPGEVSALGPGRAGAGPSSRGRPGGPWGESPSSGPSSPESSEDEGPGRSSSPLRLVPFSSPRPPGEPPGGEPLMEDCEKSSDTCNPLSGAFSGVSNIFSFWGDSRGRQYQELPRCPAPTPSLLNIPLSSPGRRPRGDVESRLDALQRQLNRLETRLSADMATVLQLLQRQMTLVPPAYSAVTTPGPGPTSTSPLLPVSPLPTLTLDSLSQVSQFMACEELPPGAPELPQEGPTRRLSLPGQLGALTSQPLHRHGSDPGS

[40] = target: T1, Tyrosine-protein kinase ABL1; conditions: 10 uM
Description: Inhibition of Abl at 10 uM

[41] = target: T2, High affinity nerve growth factor receptor; conditions: 10 uM
Description: Inhibition of TrkA at 10 uM

[42] = target: Testis-specific serine/threonine-protein kinase 2 (Homo sapiens) (UniProt Q96PF2); conditions: 10 uM
Description: Inhibition of TSSK2 at 10 uM

[43] = target: T14, Serine/threonine-protein kinase WNK3; conditions: 10 uM
Description: Inhibition of WNK3 at 10 uM

[44] = in vivo; conditions: Han Wistar, rat, iv, 3 mg/kg
Description: Clearance in Han Wistar rat at 10 mg/kg, po and 3 mg/kg, iv

[45] = in vitro; conditions: rat, hepatocytes
Description: Intrinsic clearance in rat hepatocytes assessed per million cells by LC/MS/MS analysis

[46] = in vitro; conditions: human, plasma
Description: Fraction unbound in human plasma

[47] = test system: NIH3T3; test: Antitumor activity against 3T3 cells overexpressing constitutively active TRKA allografted in CrTac:Ncr-Foxn1nu mouse assessed as tumor regression at 5 mg/kg, po BID for 7 days; type: functional
[48] = test system: NIH3T3; test: Antitumor activity against 3T3 cells overexpressing constitutively active TRKA allografted in CrTac:Ncr-Foxn1nu mouse assessed as tumor growth delay time at 25 mg/kg, po BID for 7 days; type: functional
[49] = test system: Mus musculus; test: Toxicity in 3T3 cells overexpressing constitutively active TRKA allografted CrTac:Ncr-Foxn1nu mouse assessed as weight loss at 1 to 25 mg/kg, po BID for 7 days; type: organism-based, NIH3T3; design: dose 1-25 mg/kg, route oral; conditions: in vivo, 168 h
[50] = test system: NIH3T3; test: Antitumor activity against 3T3 cells overexpressing constitutively active TRKA allografted in CrTac:Ncr-Foxn1nu mouse assessed as tumor regression at 25 mg/kg, po BID for 7 days; type: functional
[51] = physchem; conditions: buffer
Description: Aqueous solubility of the compound

[52] = test system: NIH3T3; test: animal or person; conditions: Mus musculus, NIH3T3, po, 168 h, read-out: TGI
Description: Antitumor activity against 3T3 cells overexpressing constitutively active TRKA allografted in CrTac:Ncr-Foxn1nu mouse assessed as tumor growth inhibition at 1 mg/kg, po BID for 7 days

[53] = Clearance in beagle dog at 10 mg/kg, po and 2 mg/kg, iv; type: ADME, organism-based, Canis lupus familiaris; conditions: in vivo
[54] = Half life in beagle dog at 10 mg/kg, po and 2 mg/kg, iv; type: ADME, organism-based, Canis lupus familiaris; conditions: in vivo
[55] = Oral bioavailability in beagle dog at 10 mg/kg; type: ADME, organism-based, Canis lupus familiaris; conditions: in vivo
[56] = test system: NIH3T3; test: Antitumor activity against 3T3 cells overexpressing constitutively active TRKA allografted in CrTac:Ncr-Foxn1nu mouse assessed as tumor stasis at 5 mg/kg, po BID for 7 days; type: functional
[57] = test system: Mus musculus; test: Toxicity in 3T3 cells overexpressing constitutively active TRKA allografted CrTac:Ncr-Foxn1nu mouse assessed as weight loss at 1 to 5 mg/kg, po BID for 7 days; type: organism-based, NIH3T3; design: dose 1-5 mg/kg, route oral; conditions: in vivo, 168 h

Structure (SMILES): C[C@H](Nc1ccc2ncn(-c3cc(C4CC4)[nH]n3)c2n1)c1ncc(F)cn1
half-life [1]: 1.2 h
bioavailability [2]: 33%
clearance [44]: 39 mL/min/kg
hepatocyte CLint [45]: 48 µL/min/1e6 cells
solubility [51]: 590 µM (≈ 215 µg/mL)
fraction unbound [46]: 0.16

Structure (SMILES): Cc1cc(-n2cnc3ccc(N[C@@H](C)c4ncc(F)cn4)nc32)n[nH]1
half-life [1]: 0.82 h
bioavailability [2]: 92%
IC50 [39]: > 32000 nM
clearance [44]: 45 mL/min/kg
solubility [51]: > 1000 µM
fraction unbound [46]: 0.39

Structure (SMILES): COc1cc(Nc2nc3c(cc2F)ncn3[C@@H](CO)c2ccc(F)cn2)n[nH]1
half-life [1]: 3.2 h
bioavailability [2]: 41%
IC50 [39]: > 32000 nM
clearance [44]: 33 mL/min/kg
hepatocyte CLint [45]: 29 µL/min/1e6 cells
solubility [51]: 150 µM (≈ 58.1 µg/mL)

Structure (SMILES): CC(C)Oc1cc(-n2cnc3cnc(N[C@@H](C)c4ncc(F)cn4)nc32)n[nH]1
half-life [1]: 3.8 h
bioavailability [2]: 29%
IC50 [39]: > 32000 nM
clearance [44]: 130 mL/min/kg
hepatocyte CLint [45]: 24 µL/min/1e6 cells
solubility [51]: 480 µM (≈ 184 µg/mL)
fraction unbound [46]: 0.31

Second part, led by results:

half-life [1]: 0.97 h
bioavailability [2]: 6.7%
IC50 [3]: 1.2 nM
IC50 [4]: 1.4 nM
IC50 [5]: 2.1 nM
IC50 [6]: 2.2 nM
IC50 [7]: 3.5 nM
IC50 [8]: 5.5 nM
IC50 [9]: 6.1 nM
IC50 [10]: 8.7 nM
IC50 [11]: 13.4 nM
IC50 [12]: 17.2 nM
IC50 [13]: 18.2 nM
IC50 [14]: 30.6 nM
IC50 [15]: 34.1 nM
IC50 [16]: 44.3 nM
IC50 [17]: 64 nM
IC50 [18]: 68.3 nM
IC50 [19]: 72.2 nM
IC50 [20]: 99.8 nM
IC50 [21]: < 100 nM
IC50 [22]: < 100 nM
IC50 [23]: < 100 nM
inhibition [24]: > 30%
inhibition [25]: > 30%
inhibition [26]: > 30%
inhibition [27]: > 30%
inhibition [28]: > 30%
inhibition [29]: > 30%
inhibition [30]: > 30%
inhibition [31]: > 30%
inhibition [32]: > 30%
inhibition [33]: > 30%
inhibition [34]: > 30%
inhibition [35]: > 30%
inhibition [36]: > 30%
inhibition [37]: > 30%
IC50 [38]: < 100 nM
inhibition [40]: > 30%
inhibition [41]: > 30%
inhibition [42]: > 30%
inhibition [43]: > 30%
clearance [44]: 41 mL/min/kg
hepatocyte CLint [45]: 42 µL/min/1e6 cells
fraction unbound [46]: 0.06
Structure (SMILES): CC(C)Oc1cc(-n2cnc3ccc(N[C@@H](C)c4ccc(F)cn4)nc32)n[nH]1
IC50 [39]: > 32000 nM

half-life [1]: 1.2 h
bioavailability [2]: 54%
clearance [44]: 51 mL/min/kg
hepatocyte CLint [45]: 31 µL/min/1e6 cells
solubility [51]: 220 µM (≈ 91.4 µg/mL)
fraction unbound [46]: 0.058
Structure (SMILES): CC(C)Oc1cc(Nc2nc3c(cc2F)ncn3[C@@H](CO)c2ccc(F)cn2)n[nH]1
Activity [47]: -51%
Time [48]: 4 days
Activity [49]: < 5%
Activity [50]: -63%
inhibition in vivo at 1 mg/kg [52]: 30%

half-life [1]: 2.3 h
bioavailability [2]: 29%
clearance [53]: 15.2 mL/min/kg
half-life [54]: 1 h
bioavailability [55]: 17%
clearance [44]: 46 mL/min/kg
hepatocyte CLint [45]: 13 µL/min/1e6 cells
solubility [51]: 250 µM (≈ 99.4 µg/mL)
fraction unbound [46]: 0.081
Structure (SMILES): CC(C)Oc1cc(-n2cnc3ccc(N[C@@H](CO)c4ccc(F)cn4)nc32)n[nH]1
Activity [56]: -47%
Activity [57]: < 5%
IC50 [39]: 52000 nM
inhibition in vivo at 1 mg/kg [52]: 12%
